These results are taken from patent US5550110A, “Endothelin Antagonists II” (Warner-Lambert Company, priority 1994, dated 1996).

The subject of series [1] is CaCO-2 cells (human colon adenocarcinoma cell line). It is filed as in vitro ADME. As to the method:
For experiments, the cells were counted, then diluted to 2.5×10^5 cells/mL for planting (400 μL per well) onto Snapwell culture membranes with 2.5 mL media in the lower chamber. Media in the […] was changed every 2 to 3 days. Cells used for this series of experiments were between passage 38 and 91. 2-[N-Morpholino]ethanesulfonic acid (MES)+25 mM glucose was used as incubation buffer for all the experiments and all incubation solutions were prepared to an osmotic pressure of 280 to 300 milliosmoles. The concentration of the endothelin antagonist being studied (for all experiments) was 100 μM and another endothelin antagonist with similar HPLC characteristics (retention time 2-3 minutes from the ET antagonist being studied, and similar chemical characteristics) was used at a concentration of 25 μM as an internal standard to compensate for any injection error. Prior to the start of the experiment, the transepithelial electrical resistance (TEER) was measured for each Snapwell (in media) at three points of the membrane. […] The membranes were washed by swirling in 0.9% normal saline and mounted in the pretreated diffusion chambers [0.1 mg/mL human serum albumin for 1 to 2 hours at 37° C. with O2 bubbling followed by air drying at 37° C. overnight, then with 4.5 to 5.0 mL dosing solution (MES+glucose+^14 C-PEG-4000 (5000 dpm/50 μL)+drug) for 5 minutes and 4.5 to 5.0 mL MES+glucose rinse just before the experiment.] The apical (donor) side was filled with 4.5 to 5.0 mL dosing solution, the basolateral (receiver) side with MES+glucose. Samples were removed from the donor and receiver compartments over the course of the experiment and analyzed for ^14 C-PEG 4000 (cell membrane integrity) and endothelin content.

Series [2] has as its target T1, endothelin receptor (ETB), rat cerebellar membranes (Rattus norvegicus, UniProt P21451).
T1 construct: thaw one aliquot of frozen rat cerebellar membranes (2 mg protein in 0.5 mL); from tissue; host or cells: rat cerebellum (membranes)
T1 sequence (P21451 27-442): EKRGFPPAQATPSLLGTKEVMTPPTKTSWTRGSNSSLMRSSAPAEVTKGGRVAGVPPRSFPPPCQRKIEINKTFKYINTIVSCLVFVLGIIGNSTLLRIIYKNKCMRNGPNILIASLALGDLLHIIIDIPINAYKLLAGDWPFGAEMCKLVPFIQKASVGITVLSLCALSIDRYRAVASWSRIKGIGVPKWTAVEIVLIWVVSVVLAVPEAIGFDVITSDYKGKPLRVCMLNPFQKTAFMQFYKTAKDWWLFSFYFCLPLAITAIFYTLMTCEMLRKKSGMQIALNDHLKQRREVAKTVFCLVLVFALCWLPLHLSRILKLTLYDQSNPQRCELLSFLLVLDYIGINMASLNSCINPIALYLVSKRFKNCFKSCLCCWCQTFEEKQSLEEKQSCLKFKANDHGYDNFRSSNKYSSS
Briefly: Endothelin Receptor Binding Assay-B (ERBA-B), [125I]-ET-1 binding in rat cerebellar membranes. To be noted: [125I]-ET-1 25 pM, read-out: ERRA-B IC50.

The subject of series [3] is ETA (rabbit femoral artery). To be noted: ET-1 as agonist, endothelium-denuded rings. An excerpt:
(§1) In Vitro Antagonism of ET-1 Stimulated Vasoconstriction in the Rabbit Femoral Artery (ETA) and Sarafotoxin 6c Stimulated Vasoconstriction in the Rabbit Pulmonary Artery (ETB)
(§2) Male New Zealand rabbits were killed by cervical dislocation and exsanguination. Femoral and pulmonary arteries were isolated, cleaned of connective tissue, and cut into 4-mm rings. The endothelium was denuded by placing the rings over hypodermic tubing (32 guage for femoral rings and 28 guage for pulmonary rings, Small Parts, Inc, Miami, Fla.) and gently rolling them. Denuded rings were mounted in 20 mL organ baths containing Krebs-bicarbonate buffer (composition in mM: NaCl, 118.2; NaHCO3, 24.8; KCl, 4.6; MgSO4 7.H2 O, 1.2; KH2 PO4, 1.2; CaCl2.2H2 O; Ca--Na2 EDTA, 0.026; dextrose, 10.0), that was maintained at 37° C. and gassed continuously with 5% CO2 in oxygen (pH 7.4). Resting tension was adjusted to 3.0 g for femoral and 4.0 g pulmonary arteries; the rings were left for 90 minutes to equilibrate.

Series [4] concerns the target ETB (rabbit pulmonary artery) (Oryctolagus cuniculus, UniProt Q9N0W7).
Source text: as §1, §2

Peptide text beside a SMILES is read from it.

ETB (rabbit pulmonary artery), sequence (Q9N0W7 27-441): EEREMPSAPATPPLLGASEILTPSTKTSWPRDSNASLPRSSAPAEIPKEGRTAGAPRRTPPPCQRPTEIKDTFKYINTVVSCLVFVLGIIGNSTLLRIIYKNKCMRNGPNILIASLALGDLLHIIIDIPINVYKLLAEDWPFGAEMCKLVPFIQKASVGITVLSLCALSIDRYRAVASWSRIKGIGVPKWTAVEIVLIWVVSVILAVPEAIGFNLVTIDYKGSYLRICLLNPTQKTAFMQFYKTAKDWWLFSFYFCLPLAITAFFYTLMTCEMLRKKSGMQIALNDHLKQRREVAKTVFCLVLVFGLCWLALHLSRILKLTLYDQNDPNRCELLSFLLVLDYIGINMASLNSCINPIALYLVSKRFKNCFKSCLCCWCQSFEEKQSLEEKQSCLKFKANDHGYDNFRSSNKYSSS

As for `CC[C@H](C)[C@H](NC(=O)[C@H](CC(=O)O)NC(=O)[C@H](CC(C)C)NC(=O)[C@H](NC(C)=O)C1c2ccccc2CCc2ccccc21)C(=O)N[C@H](C(=O)N[C@@H](Cc1c[nH]c2ccccc12)C(=O)O)[C@@H](C)CC` [Example 1, Ac-D-Bhg-Leu-Asp-Ile-Ile-Trp] (HELM PEPTIDE1{[ac].[O=C([C@H](N[*:1])C1c2ccccc2CCc2ccccc21)[*:2]].L.D.I.I.W}$$$$V2.0), the “absorption in the gut suggested by CaCO-2 values” in series [1] was 5-10%. The IC50 (usually the midpoint of a concentration-inhibition curve) in series [2] stood at 19 nM. In addition, the “pA2 Femoral” value in series [3] amounted to 6.8. Moreover, the Kb in series [4] is 79.4 nM.

With `CC[C@H](C)[C@H](NC(=O)[C@H](CC(=O)O)NC(=O)[C@H](CC(C)C)NC(=O)[C@H](NC(C)=O)C1c2ccccc2CCc2ccccc21)C(=O)N(C)[C@H](C(=O)N[C@@H](Cc1c[nH]c2ccccc12)C(=O)O)[C@@H](C)CC` [Example 19, Ac-D-Bhg-Leu-Asp-Ile-N-MeIle-Trp] (HELM PEPTIDE1{[ac].[O=C([C@H](N[*:1])C1c2ccccc2CCc2ccccc21)[*:2]].L.D.I.[meI].W}$$$$V2.0), the “absorption in the gut suggested by CaCO-2 values” in series [1] is 5-10%. Besides, the IC50 in series [2] came to 40 nM. For the same molecule, the “pA2 Femoral” value in series [3] is listed as 7.3. In addition, in series [4], the Kb is 251 nM.
